Assay results taken from patent US12679843B2, “Pyrrolopyrimidine amines as complement inhibitors” (BioCryst Pharmaceuticals, Inc., priority 2020, dated 2026).

molecular target: Factor D (Homo sapiens, UniProt P00746); assay: Factor D esterolytic assay (Z-Lys-SBzl thioester substrate, DTNB, 405 nm); assay type: biochemical; conditions: substrate Z-Lys-SBzl 1.29 mM, 100 mM HEPES, 500 mM NaCl, pH 7.5, 10% DMSO, tested a minimum of three times
In short: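 Run in pH 7.5 HEPES (100 mM) with 500 mM NaCl and 10% DMSO, with compound preincubated at room temperature or not before adding 1.29 mM Z-Lys-SBzl. Free thiol released by Factor D reacts with DTNB, and rate is followed at 405 nm minus 690 nm over 600 s. IC50 derives from rate-based inhibition, minimum three replicates.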

Chain of Factor D (P00746 26-253): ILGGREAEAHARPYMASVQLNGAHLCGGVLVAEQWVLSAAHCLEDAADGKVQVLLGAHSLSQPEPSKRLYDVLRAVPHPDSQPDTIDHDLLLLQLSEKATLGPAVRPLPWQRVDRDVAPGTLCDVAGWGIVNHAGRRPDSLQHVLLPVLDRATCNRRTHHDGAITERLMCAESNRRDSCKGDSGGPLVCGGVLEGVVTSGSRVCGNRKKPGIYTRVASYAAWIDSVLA

Row | IC50 [nM] | SMILES
1 | < 100 | Nc1ncnc2c1c1cc(F)c(F)cc1n2CC(=O)N1[C@@H]2C[C@@H]2C[C@H]1C(=O)Nc1cccc(Br)n1 [Compound 386g, (1R,3S,5R)-2-(2-(4-amino-6,7-difluoro-9H-pyrimido[4,5-b]indol-9-yl)acetyl)-N-(6-bromopyridin-2-yl)-2-azabicyclo[3.1.0]hexane-3-carboxamide]
2 | < 100 | C[C@@]12C[C@@H](C(=O)Nc3cccc(Br)n3)N(C(=O)Cn3c4cc(F)c(F)cc4c4c(N)ncnc43)[C@@H]1C2 [Compound 387a, (1R,3S,5R)-2-(2-(4-amino-6,7-difluoro-9H-pyrimido[4,5-b]indol-9-yl)acetyl)-N-(6-bromopyridin-2-yl)-5-methyl-2-azabicyclo[3.1.0]hexane-3-carboxamide]
3 | < 100 | COc1cc2c(cc1F)c1c(N)ncnc1n2CC(=O)N1[C@H](C(=O)Nc2cccc(Br)n2)C[C@@]2(C)C[C@@H]12 [Compound 388a, (1R,3S,5R)-2-(2-(4-amino-6-fluoro-7-methoxy-9H-pyrimido[4,5-b]indol-9-yl)acetyl)-N-(6-bromopyridin-2-yl)-5-methyl-2-azabicyclo[3.1.0]hexane-3-carboxamide]
4 | < 100 | Nc1ncnc2c1c1cc(Br)c(F)cc1n2CC(=O)N1[C@@H]2C[C@@H]2C[C@H]1C(=O)Nc1cccc(Br)n1 [Compound 389g, (1R,3S,5R)-2-(2-(4-amino-6-bromo-7-fluoro-9H-pyrimido[4,5-b]indol-9-yl)acetyl)-N-(6-bromopyridin-2-yl)-2-azabicyclo[3.1.0]hexane-3-carboxamide]
5 | < 100 | C[C@@]12C[C@@H](C(=O)Nc3cccc(Br)n3)N(C(=O)Cn3c4cc(F)c(Br)cc4c4c(N)ncnc43)[C@@H]1C2 [Compound 390a, (1R,3S,5R)-2-(2-(4-amino-6-bromo-7-fluoro-9H-pyrimido[4,5-b]indol-9-yl)acetyl)-N-(6-bromopyridin-2-yl)-5-methyl-2-azabicyclo[3.1.0]hexane-3-carboxamide]
6 | < 100 | Cc1cc(F)c2c(c1)c1c(N)ncnc1n2CC(=O)N1[C@@H]2C[C@@H]2C[C@H]1C(=O)Nc1cccc(Br)n1 [Compound 391g, (1R,3S,5R)-2-(2-(4-amino-8-fluoro-6-methyl-9H-pyrimido[4,5-b]indol-9-yl)acetyl)-N-(6-bromopyridin-2-yl)-2-azabicyclo[3.1.0]hexane-3-carboxamide]
7 | < 100 | Cc1cc(F)c2c(c1)c1c(N)ncnc1n2CC(=O)N1[C@H](C(=O)Nc2cccc(Br)n2)C[C@@]2(C)C[C@@H]12 [Compound 392a, (1R,3S,5R)-2-(2-(4-amino-8-fluoro-6-methyl-9H-pyrimido[4,5-b]indol-9-yl)acetyl)-N-(6-bromopyridin-2-yl)-5-methyl-2-azabicyclo[3.1.0]hexane-3-carboxamide]
